The nature of this data set: Pharmacokinetics in rat plasma after oral administration of SF-CS and SP-CS extracts (HPLC-MS/MS). The conditions noted are these: for Tmax / AUC(0-inf) / Cmax / AUC(0-t) / MRT last: male, Sprague-Dawley; for Tmax / AUC(0-inf) / Cmax / AUC(0-t) / MRT last / AUC(0–24h) / T1/2ka / T1/2α / Shape of plasma concentration-time profile: rat plasma; for AUC(0-t): read-out: AUC0–24h; for MRT last: read-out: MRT0–24h; for Shape of plasma concentration-time profile: oral SF-CS and SP-CS extracts. In kind it is in vivo, Male Sprague-Dawley rats. The protocol:
All components were measured on an Agilent 1200 HPLC system (Agilent Corporation, Santa Clara, CA, USA) and API 3200 triple quadrupole mass spectrometer (Concord, ON, Canada) in negative ion mode. Acetonitrile (A) and 0.1% formic acid-water (B) were used to separate the analytes on an Agilent Eclipse plus C18 column (4.6 mm × 100 mm, 1.8 μm) with a flow rate of 0.5 mL·min^−1. […] The equilibration time (10 min) of the sequence was added before the next injection. The column temperature was 30 °C. The optimized main parameters, namely curtain gas, collision gas, ion Spray voltage, and temperature, were set at 30 psi, 8 psi, −4000 V, and 600 °C, respectively.
The plasma sample (100 μL), IS (10 μL) and formic acid (10 μL) were mixed and vortexed for 1 min. Then, 1 mL of ethyl acetate was spiked into the mixed solution and centrifuged for 10 min at 14,000 rpm. The supernatant was transferred and evaporated with nitrogen gas. These residues were re-dissolved with 100 μL methanol. The final solutions were vortexed for 2 min and centrifuged for 10 min. The supernatant was injected into the HPLC-MS/MS and analyzed.
The pharmacokinetic study was conducted in accordance with the Guidelines for the Care and Use of Laboratory Animals by USA National Institutes of Health and approved by the Animal Ethics Committee of Tianjin University of Traditional Chinese Medicine (the permit number: TCM-LAEC2019023, Tianjin, China). Male Sprague-Dawley rats (200–240 g) were fed in the animal laboratory of Tianjin University of Traditional Chinese Medicine under the standard conditions. These rats were fed and given water for 1 week before experimentation. […] In order to investigate the influence of processing on the metabolic process of active ingredients in vivo, the same amount of raw CS was processed and administrated. Depending on the clinical dosage that was applied to the human body, the dosage of SF-CS extracts was 1.9 g kg^−1 (an equivalent dosage of 12.75 g kg^−1 raw CS) for oral administration, while extraction of SP-CS was 2.2 g kg^−1 (an equivalent dosage of 12.50 g kg^−1 raw CS). In order to investigate the influence of salt on the metabolic process of active ingredients in vivo, the dosage of SF-CS extracts was 1.9 g kg^−1 (an equivalent dosage of 12.75 g kg^−1 raw CS) and SF-CS extracts with salt ( 0.26 g kg^−1 ) were used to perform the pharmacokinetic study. […] The collected plasma was centrifuged for 10 min at 6000 rpm and stored at −20 °C before analysis.
All of the pharmacokinetic parameters were estimated with the DAS1.0 system (Medical College of Wannan, China). The maximum concentration of oral administration of CS (Cmax) and the time to reach Cmax (Tmax) were achieved from the concentration–time profile. All values were shown as mean ± standard deviation. Independent t-test was used to compare the pharmacokinetic parameters of the two processed CS.

The mark [1] stands for this setting: oral SF-CS extract (A) 1.9 g kg^-1, n = 10.
[2] abbreviates: oral SF-CS extract (A) 1.9 g kg^-1, n = 10, mean ± SD.
The mark [3] stands for this setting: oral SP-CS extract (B) 2.2 g kg^-1, n = 10.
[4] abbreviates: oral SP-CS extract (B) 2.2 g kg^-1, n = 10, mean ± SD.

Like-named read-outs stand apart in the source and are kept apart here.

`O=c1c(O[C@@H]2O[C@H](CO)[C@@H](O)[C@H](O)[C@H]2O)c(-c2ccc(O)cc2)oc2cc(O)cc(O)c12` [Astragalin, astragalin]: the Tmax (commonly the time at which the peak concentration occurs) under setting [1] is 0.99 h. Also, under setting [2], the AUC(0-inf) – broadly, the area under the concentration-time curve extrapolated to infinity – turned out to be 11.2 ± 10.8 ng·h/mL; the concentration peaked (Cmax) at 0.65 ± 0.39 ng/mL; the AUC(0-t) worked out at 1.27 ± 0.76 ng·h/mL; the MRT last was 2.3 ± 0.98 h. For the same compound, under setting [2], the T1/2ka was 2.27 ± 5.13 h and the T1/2α stood at 24.6 ± 33.2 h. Further, the time to peak (Tmax) under setting [3] was 0.17 h. Besides, under setting [4], the AUC(0-inf) was determined as 2.33 ± 0.72 ng·h/mL, the concentration peaked (Cmax) at 1.43 ± 0.21 ng/mL, the AUC(0-t) is 1.31 ± 0.27 ng·h/mL and the MRT last stood at 2.13 ± 0.2 h. Under setting [4], this compound showed a T1/2ka of 0.04 ± 0.00 h and a T1/2α of 0.10 ± 0.04 h. In addition, the AUC(0–24h) (oral SF-CS extract) worked out at 1.27 ± 0.76 ng·h/mL. Besides, the AUC(0–24h) (oral SP-CS extract) came out at 1.31 ± 0.27 ng·h/mL.

With `O=C(O)/C=C/c1ccc(O)cc1` [P-coumaric acid, p-coumaric acid], the Tmax under setting [1] stood at 0.54 h. In addition, under setting [2], the area under the curve AUC(0-inf) was found to be 3290 ± 591 ng·h/mL; the Cmax – broadly, the highest concentration seen after dosing – came to 1210 ± 310 ng/mL; the AUC(0-t) was 3200 ± 635 ng·h/mL; the MRT last turned out to be 4.24 ± 1.45 h. Under setting [2], the T1/2ka turned out to be 0.15 ± 0.12 h and the T1/2α is recorded as 1.32 ± 0.86 h. Also, under setting [3], the Tmax was 0.33 h. Under setting [4], the AUC(0-inf) came to 2800 ± 951 ng·h/mL, the Cmax was found to be 805 ± 307 ng/mL, the AUC(0-t) was 2570 ± 792 ng·h/mL and the MRT last amounted to 5.68 ± 1.69 h. Under setting [4], this compound returned a T1/2ka of 0.05 ± 0.04 h and a T1/2α of 1.40 ± 0.95 h. Further, the AUC(0–24h) (oral SF-CS extract) was 3200 ± 635 ng·h/mL. Moreover, for the setting “oral SP-CS extract”, the AUC(0–24h) amounted to 2570 ± 792 ng·h/mL.

Consider `O=c1c(O[C@@H]2O[C@H](CO)[C@@H](O)[C@H](O)[C@H]2O)c(-c2ccc(O)c(O)c2)oc2cc(O)cc(O)c12` [Isoquercitrin, isoquercitrin], for which the “Detection in rat plasma” value (after oral administration of the two processed products of CS, LLOQ 2 ng·mL^−1) is reported as “could not be tested”.

In the case of `O=c1c(O[C@@H]2O[C@H](CO)[C@H](O)[C@H](O)[C@H]2O)c(-c2ccc(O)c(O)c2)oc2cc(O)cc(O)c12` [Hyperin, hyperin], the Tmax under setting [1] was determined as 0.74 h. In addition, under setting [2], the area under the curve AUC(0-inf) worked out at 331 ± 80 ng·h/mL, the highest level (Cmax) was 21.3 ± 6.98 ng/mL, the AUC(0-t) came out at 172 ± 38 ng·h/mL and the MRT last is 9.19 ± 1.5 h. Under setting [2], this compound showed a T1/2ka of 2.15 ± 4.21 h and a T1/2α of 11.7 ± 6.73 h. Further, under setting [3], the Tmax came out at 0.11 h. Moreover, under setting [4], the AUC(0-inf) was 185 ± 153 ng·h/mL, the highest concentration (Cmax) is 36.6 ± 21.9 ng/mL, the AUC(0-t) stood at 63 ± 27.8 ng·h/mL and the MRT last was found to be 8.66 ± 2.37 h. Besides, under setting [4], the T1/2ka stood at 0.01 ± 0.01 h and the T1/2α came out at 0.46 ± 0.30 h.

For `O=C(/C=C/c1ccc(O)c(O)c1)O[C@@H]1C[C@](O)(C(=O)O)C[C@@H](O)[C@H]1O` [Chlorogenic acid, chlorogenic acid], the “Shape of plasma concentration-time profile” value was “double-peak phenomenon”. In addition, the time to peak (Tmax) under setting [1] came to 3.84 h. Also, under setting [2], the AUC(0-inf) amounted to 1670 ± 931 ng·h/mL, the Cmax amounted to 257 ± 53 ng/mL, the AUC(0-t) came to 1660 ± 931 ng·h/mL and the MRT last turned out to be 4.81 ± 0.35 h. Under setting [2], the T1/2ka stood at 0.63 ± 0.87 h and the T1/2α is listed as 6.53 ± 5.20 h. Also, the Tmax under setting [3] is 0.28 h. Under setting [4], the area under the curve AUC(0-inf) was determined as 438 ± 289 ng·h/mL, the Cmax worked out at 175 ± 168 ng/mL, the AUC(0-t) came to 417 ± 281 ng·h/mL and the MRT last stood at 5.06 ± 1.1 h. Under setting [4], this compound yielded a T1/2ka of 0.02 ± 0.01 h and a T1/2α of 0.84 ± 0.42 h.

Turning to `O=C(/C=C/c1ccc(O)c(O)c1)O[C@@H]1C[C@@](O)(C(=O)O)C[C@@H](O)[C@@H]1O` [Neochlorogenic acid, neochlorogenic acid], the “Shape of plasma concentration-time profile” value is listed as “double-peak phenomenon”. For the same compound, under setting [1], the Tmax worked out at 3.75 h. In addition, under setting [2], the AUC(0-inf) turned out to be 567 ± 376 ng·h/mL, the Cmax stood at 88.6 ± 39.6 ng/mL, the AUC(0-t) was determined as 548 ± 384 ng·h/mL and the MRT last came out at 5.57 ± 1.74 h. Under setting [2], this compound showed a T1/2ka of 1.12 ± 1.66 h and a T1/2α of 7.72 ± 7.50 h. Besides, under setting [3], the Tmax is 0.26 h. Further, under setting [4], the AUC(0-inf) came to 178 ± 22 ng·h/mL, the Cmax turned out to be 31.8 ± 17.3 ng/mL, the AUC(0-t) was 129 ± 38 ng·h/mL and the MRT last was 8.18 ± 1.66 h. Under setting [4], this compound registered a T1/2ka of 0.02 ± 0.02 h and a T1/2α of 3.35 ± 4.31 h.
